{"source": "PubChem BioAssay AID1259409", "about": "(Chemical Carcinogenesis Research Information System (CCRIS), 2018)", "origin": "cited, not measured here", "tested_on": "rodent chemically induced tumor inhibition, incidence and multiplicity", "experiment": "CCRIS tumor inhibitor studies"}
{"smiles": "O=c1cc(-c2ccccc2)oc2ccc3ccccc3c12", "values": [{"measurement": "tumour outcome (control, treated, inhibition, significance)", "setting": "Carcinogen: 2-AMINO-1-METHYL-6-PHENYLIMIDAZO[4,5-B]PYRIDINE [105650-23-5], Dose [Inhibitor]: 1000 PPM IN DIET FOR 4 WK BEGINNING WK PRIOR TO FIRST CARCINOGEN DOSE (STUDY DURATION: 25 WK), Route [Inhibitor]: ORAL, Species: RAT, Strain/Sex: SPRAGUE-DAWLEY/FEMALE, Target Tissue: Type of Lesion: MAMMARY GLAND: FIBROADENOMA OR DUCTAL CARCINOMA, Dose [Carcinogen]: 85 MG/KG BW 2X/WK FOR 4 WK (STUDY DURATION: 25 WK), Promoter: NONE", "result": "67.7%, 12.5%, 82%, p<0.001"}, {"measurement": "tumour outcome (control, treated, inhibition, significance)", "setting": "Carcinogen: 7,12-DIMETHYLBENZ[A]ANTHRACENE [57-97-6], Dose [Inhibitor]: 500 PPM IN DIET FOR 10 WK BEGINNING 1 WK PRIOR TO FIRST CARCINOGEN DOSE (STUDY DURATION: 11 MONTHS), Route [Inhibitor]: ORAL, Species: FISH, Strain/Sex: RAINBOW TROUT/MALE, FEMALE, Target Tissue: Type of Lesion: LIVER: TUMOR, Dose [Carcinogen]: 800 PPM IN DIET FOR 9 WK (STUDY DURATION: 11 MONTHS), Promoter: NONE", "result": "4%, 7%, -75%, not significant"}, {"measurement": "tumour outcome (control, treated, inhibition, significance)", "setting": "Carcinogen: 7,12-DIMETHYLBENZ[A]ANTHRACENE [57-97-6], Dose [Inhibitor]: 500 PPM IN DIET FOR 10 WK BEGINNING 1 WK PRIOR TO FIRST CARCINOGEN DOSE (STUDY DURATION: 11 MONTHS), Route [Inhibitor]: ORAL, Species: FISH, Strain/Sex: RAINBOW TROUT/MALE, FEMALE, Target Tissue: Type of Lesion: STOMACH: TUMOR, Dose [Carcinogen]: 800 PPM IN DIET FOR 9 WK (STUDY DURATION: 11 MONTHS), Promoter: NONE", "result": "92%, 28%, 70%, p<0.001"}, {"measurement": "tumour outcome (control, treated, inhibition, significance)", "setting": "Carcinogen: 7,12-DIMETHYLBENZ[A]ANTHRACENE [57-97-6], Dose [Inhibitor]: 500 PPM IN DIET FOR 10 WK BEGINNING 1 WK PRIOR TO FIRST CARCINOGEN DOSE (STUDY DURATION: 11 MONTHS), Route [Inhibitor]: ORAL, Species: FISH, Strain/Sex: RAINBOW TROUT/MALE, FEMALE, Target Tissue: Type of Lesion: SWIM BLADDER: TUMOR, Dose [Carcinogen]: 800 PPM IN DIET FOR 9 WK (STUDY DURATION: 11 MONTHS), Promoter: NONE", "result": "46%, 27%, 41%, p<0.001"}, {"measurement": "tumour outcome (control, treated, inhibition, significance)", "setting": "Carcinogen: 7,12-DIMETHYLBENZ[A]ANTHRACENE, 57-97-6, Dose [Inhibitor]: 100 UG APPLIED ONCE 5 MIN BEFORE DMBA (STUDY DURATION: 28 WK), Route [Inhibitor]: DERMAL, Species: MOUSE, Strain/Sex: CD-1/FEMALE, Target Tissue: Type of Lesion: SKIN: PAPILLOMA, Dose [Carcinogen]: 2.56 UG APPLIED ONCE 5 MIN AFTER INHIBITOR, Promoter: 12-O-TETRADECANOYLPHORBOL-13-ACETATE, 16561-29-8", "result": "82%, 65%, 21%, not calculated"}, {"measurement": "tumour outcome (control, treated, inhibition, significance)", "setting": "Carcinogen: 7,12-DIMETHYLBENZ[A]ANTHRACENE, 57-97-6, Dose [Inhibitor]: 1000 UG APPLIED ONCE 5 MIN BEFORE DMBA (STUDY DURATION: 28 WK), Route [Inhibitor]: DERMAL, Species: MOUSE, Strain/Sex: CD-1/FEMALE, Target Tissue: Type of Lesion: SKIN: PAPILLOMA, Dose [Carcinogen]: 2.56 UG APPLIED ONCE 5 MIN AFTER INHIBITOR, Promoter: 12-O-TETRADECANOYLPHORBOL-13-ACETATE, 16561-29-8", "result": "82%, 60%, 27%, not calculated"}, {"measurement": "tumour outcome (control, treated, inhibition, significance)", "setting": "Carcinogen: DIETHYLNITROSAMINE, 55-18-5, Dose [Inhibitor]: 500 PPM IN DIET FOR 6 WK PRIOR TO CARCINOGEN DOSE (STUDY DURATION: 48 WK), Route [Inhibitor]: ORAL, Species: FISH, Strain/Sex: MT. SHASTA RAINBOW/MALE, FEMALE, Target Tissue: Type of Lesion: LIVER: HEPATOCELLULAR CARCINOMA AND HEPATOCHOLANGIOCELLULAR CARCINOMA, Dose [Carcinogen]: 250 PPM AQUEOUS SOLUTION FOR 24 HR, Promoter: NONE USED", "result": "105/131 (80%), 90/98 (92%), -15%, p=0.0102"}, {"measurement": "tumour outcome (control, treated, inhibition, significance)", "setting": "Carcinogen: N-NITROSOETHYLUREA, 759-73-9, Dose [Inhibitor]: 0, 150 MG/KG IN OLIVE OIL 48 HR PRIOR TO CARCINOGEN DOSE (STUDY DURATION: 8 WK), Route [Inhibitor]: INTRAPERITONEAL, Species: MOUSE, Strain/Sex: AKR/FEMALE, Target Tissue: Type of Lesion: LUNG: TUMOR, Dose [Carcinogen]: 8 MG/KG IN 0.22 MOLAR SODIUM CITRATE BUFFER 1/WK FOR 4 WK, Promoter: NONE USED", "result": "8/32 (25%), 8/35 (23%), 8%, not calculated"}, {"measurement": "tumour outcome (control, treated, inhibition, significance)", "setting": "Carcinogen: N-NITROSOETHYLUREA, 759-73-9, Dose [Inhibitor]: 0, 150 MG/KG IN OLIVE OIL 48 HR PRIOR TO CARCINOGEN DOSE (STUDY DURATION: 8 WK), Route [Inhibitor]: INTRAPERITONEAL, Species: MOUSE, Strain/Sex: C3H/HE/FEMALE, Target Tissue: Type of Lesion: LUNG: TUMOR, Dose [Carcinogen]: 8 MG/KG IN 0.22 MOLAR SODIUM CITRATE BUFFER 1/WK FOR 4 WK, Promoter: NONE USED", "result": "26/33 (79%), 25/29 (86%), -9%, not calculated"}, {"measurement": "tumour outcome (control, treated, inhibition, significance)", "setting": "Carcinogen: N-NITROSOETHYLUREA, 759-73-9, Dose [Inhibitor]: 0, 150 MG/KG IN OLIVE OIL 48 HR PRIOR TO CARCINOGEN DOSE (STUDY DURATION: 8 WK), Route [Inhibitor]: INTRAPERITONEAL, Species: MOUSE, Strain/Sex: C57BL/FEMALE, Target Tissue: Type of Lesion: LUNG: TUMOR, Dose [Carcinogen]: 8 MG/KG IN 0.22 MOLAR SODIUM CITRATE BUFFER 1/WK FOR 4 WK, Promoter: NONE USED", "result": "9/35 (26%), 17/29 (57%), -119%, not calculated"}]}
